Columns and labels:
D1 [1] = molecular target: T1, D1 (Homo sapiens, UniProt P21728); assay: D1R GS-mediated cAMP accumulation GloSensor assay; type: cell-based; details: for Emax: read-out: GS-cAMP EMAX; for activity in GS-cAMP accumulation (in words): GloSensor
D1 [2] = molecular target: T1, D1; assay: BRET β-arrestin2 recruitment assay; type: cell-based; details: for Emax: read-out: β-arrestin2 EMAX; for activity in β-arrestin2 recruitment (in words): BRET
6-OHDA-lesioned mice = assay: Motor activity study in 6-OHDA-lesioned mice; type: in vivo; details: 5 mg/kg i.p.

T1 sequence (P21728 whole entry): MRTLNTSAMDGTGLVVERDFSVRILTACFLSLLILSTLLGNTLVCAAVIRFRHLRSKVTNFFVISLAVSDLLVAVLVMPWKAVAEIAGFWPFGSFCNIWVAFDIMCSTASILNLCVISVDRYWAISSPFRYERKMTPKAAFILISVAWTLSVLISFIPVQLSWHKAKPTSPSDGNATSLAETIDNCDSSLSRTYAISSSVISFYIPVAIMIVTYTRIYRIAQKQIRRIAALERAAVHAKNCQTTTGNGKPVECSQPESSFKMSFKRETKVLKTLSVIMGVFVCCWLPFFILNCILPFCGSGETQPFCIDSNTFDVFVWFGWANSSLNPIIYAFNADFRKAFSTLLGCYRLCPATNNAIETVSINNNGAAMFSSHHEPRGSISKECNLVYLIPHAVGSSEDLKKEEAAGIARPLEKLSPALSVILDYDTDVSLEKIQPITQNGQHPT

| EC50 (D1 [1]) | Emax (D1 [1]) | EC50 (D1 [2]) | Emax (D1 [2]) | activity in β-arrestin2 recruitment (in words) (D1 [2]) | activity in GS-cAMP accumulation (in words) (D1 [1]) | SMILES | forward locomotion compared to vehicle after 1 h (6-OHDA-lesioned mice; 61–90 min interval) | number of contralateral rotations vs vehicle (6-OHDA-lesioned mice; 90 min) |
| --- | --- | --- | --- | --- | --- | --- | --- | --- |
| 1.8 nM | 88% | 151 nM | 19% |  |  | Cc1cc(Oc2nccc3occc23)ccc1-c1c(C)cnc(=O)n1C [Compound 11, 6-(4-(Furo[3,2-c]pyridin-4-yloxy)-2-methylphenyl)-1,5-dimethylpyrimidin-2(1H)-one] |  |  |
| 23 nM | 59% |  |  | no activity |  | COc1ccnc(Oc2ccc(-c3c(C)c(=O)[nH]c(=O)n3C)c(C)c2)c1C#N [Compound 33, 2-(4-(3,5-Dimethyl-2,6-dioxo-1,2,3,6-tetrahydropyrimidin-4-yl)-3-methylphenoxy)-4-methoxynicotinonitrile] |  |  |
|  |  |  |  | inactive | inactive | COc1ccc(-c2c(C)c(=O)[nH]c(=O)n2C)c(C)c1 [Compound 29, 6-(4-Methoxy-2-methylphenyl)-1,5-dimethylpyrimidine-2,4-(1H,3H)-dione] |  |  |
|  |  |  |  |  |  | Oc1cc2c(c(Cl)c1O)CCNCC2c1ccccc1 (stereo not drawn) [SKF81297, reference compound] | no longer displayed significantly increased forward locomotion | significant increases |
| 7 nM | 104% | 13 nM | 30% |  |  | Cc1cc(Oc2nccc3sccc23)ccc1-c1c(C)c(=O)[nH]c(=O)n1C [Compound 39, 1,5-Dimethyl-6-(2-methyl-4-(thieno[3,2-c]pyridin-4-yloxy)-phenyl)pyrimidine-2,4(1H,3H)-dione] |  |  |
|  | 107% |  | 40% |  |  | Cc1cc(Oc2ccccn2)ccc1-c1c(C)c(=O)[nH]c(=O)n1C [Compound 30, 1,5-Dimethyl-6-(2-methyl-4-(pyridin-2-yloxy)phenyl)pyrimidine-2,4(1H,3H)-dione] |  |  |
| 0.5 nM | 84% |  |  | no activity |  | Cc1cc(Oc2nccc3occc23)ccc1-c1c(C)c(=O)[nH]c(=O)n1CC1CC1 [Compound 19, 1-(Cyclopropylmethyl)-6-(4-(furo[3,2-c]pyridin-4-yloxy)-2-methylphenyl)-5-methylpyrimidine-2,4(1H,3H)-dione] |  |  |
| 0.4 nM | 115% | > 10000 nM |  |  |  | Cc1cc(Oc2nccc3ccccc23)ccc1-c1c(C)c(=O)[nH]c(=O)n1C [Compound 38, 6-(4-(Isoquinolin-1-yloxy)-2-methylphenyl)-1,5-dimethylpyrimidine-2,4(1H,3H)-dione] |  |  |
| 9 nM | 78% | 2090 nM | 37% |  |  | Cc1cc(Oc2nccc3occc23)ccc1-c1cc(=O)[nH]c(=O)[nH]1 [Compound 9, 6-(4-(Furo[3,2-c]pyridin-4-yloxy)-2-methylphenyl)pyrimidine-2,4(1H,3H)-dione] |  |  |
| 0.08 nM | 95% | 13 nM | 65% |  |  | CCn1c(-c2ccc(Oc3nccc4occc34)cc2C)c(C)c(=O)[nH]c1=O [Compound 17, 1-Ethyl-6-(4-(furo[3,2-c]pyridin-4-yloxy)-2-methylphenyl)-5-methylpyrimidine-2,4(1H,3H)-dione] |  |  |
| 1.1 nM | 92% | 196 nM | 63% |  |  | Cc1cc(Oc2nccc3occc23)ccc1-c1cn[nH]c(=O)c1C [Compound 12, 5-(4-(Furo[3,2-c]pyridin-4-yloxy)-2-methylphenyl)-4-methylpyridazin-3(2H)-one] |  |  |
| 105 nM | 82% |  |  | no activity |  | Cc1cc(Oc2nccc(Cl)c2C(F)(F)F)ccc1-c1c(C)c(=O)[nH]c(=O)n1C [Compound 34, 6-(4-((4-Chloro-3-(trifluoromethyl)pyridin-2-yl)oxy)-2-methyl-phenyl)-1,5-dimethylpyrimidine-2,4(1H,3H)-dione] |  |  |
| > 10000 nM |  |  |  | no activity |  | Cc1cc(Oc2nccc3occc23)ccc1-c1cc(N)nc(N)n1 [Compound 8, 6-(4-(Furo[3,2-c]pyridin-4-yloxy)-2-methylphenyl)pyrimidine-2,4-diamine] |  |  |
| 0.08 nM | 96% | 40 nM | 75% |  |  | Cc1c(-c2ccc(Oc3nccc4occc34)cc2)n(C)c(=O)[nH]c1=O [Compound 27, 6-(4-(Furo[3,2-c]pyridin-4-yloxy)phenyl)-1,5-dimethylpyrimidine-2,4(1H,3H)-dione] |  |  |
| 0.8 nM | 82% |  |  | no activity |  | Cc1cc(Oc2nccc3occc23)ccc1-c1c(C)c(=O)[nH]c(=O)n1C1CCC1 [Compound 20, 1-Cyclobutyl-6-(4-(furo[3,2-c]pyridin-4-yloxy)-2-methylphenyl)-5-methylpyrimidine-2,4(1H,3H)-dione] |  |  |
| 176 nM | 81% |  |  | no activity |  | Cc1cc(Oc2nccc3occc23)ccc1-c1cc[nH]c(=O)c1 [Compound 3, 4-(4-(Furo[3,2-c]pyridin-4-yloxy)-2-methylphenyl)pyridin-2(1H)-one] |  |  |
| 2 nM | 108% | 52 nM | 27% |  |  | COc1ccnc(Oc2ccc(-c3c(C)c(=O)[nH]c(=O)n3C)c(C)c2)c1 [Compound 31, 6-(4-((4-Methoxypyridin-2-yl)oxy)-2-methylphenyl)-1,5-dimethylpyrimidine-2,4(1H,3H)-dione] |  |  |
|  |  |  |  | inactive | inactive | Cc1cc(O)ccc1-c1c(C)c(=O)[nH]c(=O)n1C [Compound 28, 6-(4-Hydroxy-2-methylphenyl)-1,5-dimethylpyrimidine-2,4-(1H,3H)-dione] |  |  |
| 133 nM | 96% | > 10000 nM |  |  |  | Cc1cc(Oc2nccc3occc23)ccc1-c1cc(=O)[nH]cn1 [Compound 5, 6-(4-(Furo[3,2-c]pyridin-4-yloxy)-2-methylphenyl)pyrimidin-4(3H)-one] |  |  |
| 205 nM | 82% |  |  | no activity |  | Cc1cc(Oc2nccc3occc23)ccc1-c1c(C)cn[nH]c1=O [Compound 13, 4-(4-(Furo[3,2-c]pyridin-4-yloxy)-2-methylphenyl)-5-methylpyridazin-3(2H)-one] |  |  |
|  | 118% |  | 30% |  |  | Cc1cc(Oc2ncccc2C(F)(F)F)ccc1-c1c(C)c(=O)[nH]c(=O)n1C [Compound 32, 1,5-Dimethyl-6-(2-methyl-4-((3-(trifluoromethyl)pyridin-2-yl)-oxy)phenyl)pyrimidine-2,4(1H,3H)-dione] |  |  |
| 33 nM | 100% |  |  | no activity |  | Cc1cc(-c2c(C)c(=O)[nH]c(=O)n2C)ccc1Oc1nccc2occc12 [Compound 26, 6-(4-(Furo[3,2-c]pyridin-4-yloxy)-3-methylphenyl)-1,5-dimethylpyrimidine-2,4(1H,3H)-dione] |  |  |

| SMILES | EC50 (D1 [1]) | Emax (D1 [1]) | EC50 (D1 [2]) | Emax (D1 [2]) | activity in β-arrestin2 recruitment (in words) (D1 [2]) | activity in GS-cAMP accumulation (in words) (D1 [1]) | forward locomotion compared to vehicle after 1 h (6-OHDA-lesioned mice; 61–90 min interval) | number of contralateral rotations vs vehicle (6-OHDA-lesioned mice; 90 min) |
| --- | --- | --- | --- | --- | --- | --- | --- | --- |
| Cc1cc(Oc2nccc3occc23)ccc1C1=CCN(C)CC1 [Compound 1, 4-(3-Methyl-4-(1-methyl-1,2,3,6-tetrahydropyridin-4-yl)-phenoxy)furo[3,2-c]pyridine] |  |  |  |  | largely inactive | largely inactive |  |  |

— publication PMC6785188 (ACS chemical neuroscience, 2019)
